In article PMC11721942 (Journal of Enzyme Inhibition and Medicinal Chemistry, 2023):
Where a name gives a salt, the structure may show the parent alone. Read-outs that look alike come from different tables or passages of the source.

Columns and labels:
yeast α-glucosidase = yeast α-glucosidase (Saccharomyces cerevisiae, UniProt P53341); format: biochemical
α-glucosidase (yeast) = settings: cited from earlier work
[1] = biological target: ER glucosidase II (rat liver); settings: read-out: Inhibitory activity IC50; cited from earlier work
SARS-CoV-2 [2] = settings: Vero E6 cells; cited from earlier work
human α-galactosidase A = biological target: T1, human α-galactosidase A (Homo sapiens, UniProt P06280); format: biochemical
T1 sequence (P06280 32-429): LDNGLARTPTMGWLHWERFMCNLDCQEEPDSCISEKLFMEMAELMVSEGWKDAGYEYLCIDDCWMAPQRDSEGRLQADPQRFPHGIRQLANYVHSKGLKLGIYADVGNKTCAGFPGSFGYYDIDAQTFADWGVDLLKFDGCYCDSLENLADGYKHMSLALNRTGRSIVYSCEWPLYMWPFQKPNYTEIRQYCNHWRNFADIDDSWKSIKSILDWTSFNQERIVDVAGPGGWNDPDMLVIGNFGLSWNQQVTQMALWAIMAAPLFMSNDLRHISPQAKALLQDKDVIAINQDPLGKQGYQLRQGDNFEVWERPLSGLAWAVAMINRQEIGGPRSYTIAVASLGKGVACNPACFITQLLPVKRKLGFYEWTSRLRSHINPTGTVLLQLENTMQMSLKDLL

SARS-CoV-2 [3] = settings: A549-ACE2 cells; cited from earlier work
A549-ACE2 cells = experiment: Cell toxicity assay; format: cell-based, human
[4] = test system: influenza haemagglutinin folding process in ER; settings: cited from earlier work
severe COVID-19 = severe COVID-19 patients; cited from earlier work
α-glucosidase in rice = settings: cited from earlier work

Sequence of yeast α-glucosidase (P53341 whole entry): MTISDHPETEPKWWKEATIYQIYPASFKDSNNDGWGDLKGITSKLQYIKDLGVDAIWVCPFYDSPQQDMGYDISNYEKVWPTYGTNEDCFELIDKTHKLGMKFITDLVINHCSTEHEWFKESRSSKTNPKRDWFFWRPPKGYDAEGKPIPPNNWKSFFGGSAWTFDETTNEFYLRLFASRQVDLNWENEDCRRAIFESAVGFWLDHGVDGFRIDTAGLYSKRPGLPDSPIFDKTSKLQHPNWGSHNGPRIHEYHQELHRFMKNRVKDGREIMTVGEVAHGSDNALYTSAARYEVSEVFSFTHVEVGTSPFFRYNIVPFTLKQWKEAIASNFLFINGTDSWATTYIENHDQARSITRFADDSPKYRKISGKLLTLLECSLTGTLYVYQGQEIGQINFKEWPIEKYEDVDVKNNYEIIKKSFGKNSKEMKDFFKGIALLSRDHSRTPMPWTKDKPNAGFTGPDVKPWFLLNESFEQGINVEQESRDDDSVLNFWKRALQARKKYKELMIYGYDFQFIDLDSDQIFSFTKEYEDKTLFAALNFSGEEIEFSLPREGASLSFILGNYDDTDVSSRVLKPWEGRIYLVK

With `OC[C@@H]1[C@@H](O)[C@H](O)[C@@H](O)CN1CCCCCC12CC(C1)C2` [Compound 22, (2 R,3R,4R,5S)-1–(5-(Bicyclo[1.1.1]pentan-1-yl)pentyl)-3,4,5-trihydroxy-2-(hydroxymethyl)piperidin-1-ium chloride] the IC50 (yeast α-glucosidase) was 218 µM.

In the case of `CCCCN1C[C@H](O)[C@@H](O)[C@H](O)[C@H]1CO` [Compound 1, N-butyldeoxynojirimycin], the IC50 (yeast α-glucosidase) is given as greater than 500 µM, the “Inhibitory activity, % at 1 mM” value (α-glucosidase (yeast); 1 mM) is given as 12.7% and the IC50 [1] is given as 13 µM. For the same molecule, the EC50 (SARS-CoV-2 [2]) was 41 ± 22 µM.

In the case of `OC[C@H]1NC[C@H](O)[C@@H](O)[C@@H]1O` [Compound 2, deoxynojirimycin], the IC50 [1] is listed as 16 µM.

`CN1C[C@H](O)[C@@H](O)[C@@H](O)[C@H]1CO` [Compound 87, (2R,3S,4R,5S)-2-(hydroxymethyl)-1-methylpiperidine-3,4,5-triol] gave an IC50 (human α-galactosidase A) of 5.1 µM.

For `COCCCCCCCCCN1C[C@H](O)[C@@H](O)[C@H](O)[C@H]1CO` [UV-4], the EC50 (SARS-CoV-2 [3]) is listed as 4 µM.

Work on `CCCCCCCCCN1C[C@H](O)[C@@H](O)[C@@H](O)[C@H]1CO` [Compound 89, (2R,3S,4R,5S)-2-(hydroxymethyl)-1-nonylpiperidine-3,4,5-triol] yielded an IC50 (human α-galactosidase A) greater than 100 µM.

`OC[C@H]1NNC[C@@H](O)[C@H]1O` [Compound 40, (3 R,4S,5R)-3-(hydroxymethyl)hexahydropyridazine-4,5-diol hydrochloride] gave an IC50 (human α-galactosidase A) greater than 100 µM.

`CCCCCCCCCN1C[C@H](O)[C@@H](O)[C@H](O)[C@H]1CO` [Compound 76, (2R,3R,4R,5S)-2-(hydroxymethyl)-1-nonylpiperidine-3,4,5-triol] gave an IC50 (yeast α-glucosidase) of 70 µM.

`CN1NC[C@@H](O)[C@@H](O)[C@H]1CO` [Compound 104, (4R,5S,6R)-6-(hydroxymethyl)-1-methylhexahydropyridazine-4,5-diol hydrochloride] gave an IC50 (human α-galactosidase A) greater than 100 µM.

In the case of `CC/C(=C(\c1ccccc1)c1ccc(OCCN(C)C)cc1)c1ccccc1` [Compound 72, tamoxifen], the “cytotoxicity, concentration relative to antiviral EC90” value (A549-ACE2 cells) is reported as 100 fold.

For `O[C@H]1[C@H]2[C@H](O)CCCN2C[C@H]1O` [Compound 3, swainsonine], the “cytotoxicity at EC90 concentrations” value (A549-ACE2 cells) was “cytotoxicity at EC90 concentrations”.

In the case of `OC[C@@H]1[C@@H](O)[C@H](O)[C@@H](O)CN1CCCCCOCC12CC3CC(CC(C3)C1)C2` [Compound 77, (2 R,3R,4R,5S)-1–(5-(adamantan-1-ylmethoxy)pentyl)-2-(hydroxymethyl)piperidine-3,4,5-triol], the IC50 (yeast α-glucosidase) is given as 67 µM and the “concentration at which inhibition occurred” value [4] is given as 200 µM.

In the case of `CN1C[C@H](O)[C@@H](O)[C@H](O)[C@H]1CO` [Compound 75, (2R,3R,4R,5S)-2-(hydroxymethyl)-1-methylpiperidine-3,4,5-triol], the IC50 (yeast α-glucosidase) is reported as 572 µM.

For `C[C@@H]1C[C@H]2[C@@H]3CCC4=CC(=O)C=C[C@]4(C)[C@@]3(F)[C@@H](O)C[C@]2(C)[C@@]1(O)C(=O)CO` [dexamethasone], the reduction of mortality (severe COVID-19) is listed as 30%.

For `OCCN1C[C@H](O)[C@@H](O)[C@H](O)[C@H]1CO` [Compound 8, miglitol], the IC50 (yeast α-glucosidase) is given as greater than 500 µM, the IC50 (α-glucosidase (yeast)) is given as greater than 1000 µM and the IC50 (α-glucosidase (yeast); read-out: Inhibitory activity IC50, ref 37) is given as 9880 µM. For the same molecule, the IC50 (α-glucosidase (yeast); read-out: Inhibitory activity IC50, ref 46) was 41.3 µM and the IC50 (α-glucosidase in rice) was 0.05 µM.

In the case of `CCCC(=O)O[C@H]1CN2CC[C@H](O)[C@@H]2[C@@H](O)[C@@H]1O` [celgosivir], the EC50 (SARS-CoV-2 [2]) is listed as 1 ± 0.2 µM.

Work on `CCCCCCCCCN1CC[C@@H](O)[C@@H](O)[C@H]1CO` [Compound 94, (2R,3S,4R)-2-(hydroxymethyl)-1-nonylpiperidine-3,4-diol] yielded an IC50 (human α-galactosidase A) greater than 100 µM.
